# Measured values: ChEMBL document CHEMBL3272312, “Proteinase inhibitors. I. Inhibitors of elastase” (J Med Chem, 1977)
# The source made the active and inactive calls. No cut-off for these calls is given here. *1 amine or outer side, *2 acyl side, *3 side chain or, on linkers, in order; H or OH if unused. Where a SMILES comes first, the peptide text is derived from it. [ ]: non-standard residue; d: D form. AzaAla = CN(N[*:1])C(=O)[*:2]; Lac = C[C@H](O)C(=O)O
# Experiments:
# [1] = molecular target: T1, Pancreatic elastase (Sus scrofa) (UniProt P08419+P00772); assay: Inhibition of porcine pancreatic elastase assessed as Ac-Ala-Ala-Pro-Ala-p-nitroanilide conversion to p-nitroaniline by spectrophotometric analysis; format: protein assay
# [2] = molecular target: T1, Pancreatic elastase (Sus scrofa); assay: Reversible inhibition of porcine pancreatic elastase assessed as enzyme recovery; format: protein assay
# [3] = molecular target: T1, Pancreatic elastase (Sus scrofa); assay: Activity at porcine pancreatic elastase assessed as compound hydrolysis at 1 mg incubated at room temperature up to 24 hrs by TLC analysis; format: protein assay
# Pancreatic elastase = Pancreatic elastase (Sus scrofa, UniProt P08419+P00772); assay: Noncompetitive inhibition of porcine pancreatic elastase using Ac-Ala-Ala-Pro-Ala-p-nitroanilide as substrate by Dixon plot analysis; format: protein assay
# [4] = molecular target: T1, Pancreatic elastase (Sus scrofa); assay: Reversible inhibition of porcine pancreatic elastase assessed as enzyme recovery by sephadex G-25 rapid passage assay; format: protein assay
# [5] = molecular target: T1, Pancreatic elastase (Sus scrofa); assay: Activity at porcine pancreatic elastase assessed as compound hydrolysis at 1 mg incubated at room temperature after 5 mins by TLC analysis; format: protein assay
# [6] = molecular target: T2, Neutrophil elastase (Homo sapiens) (UniProt P08246)
# T2 sequence (whole entry): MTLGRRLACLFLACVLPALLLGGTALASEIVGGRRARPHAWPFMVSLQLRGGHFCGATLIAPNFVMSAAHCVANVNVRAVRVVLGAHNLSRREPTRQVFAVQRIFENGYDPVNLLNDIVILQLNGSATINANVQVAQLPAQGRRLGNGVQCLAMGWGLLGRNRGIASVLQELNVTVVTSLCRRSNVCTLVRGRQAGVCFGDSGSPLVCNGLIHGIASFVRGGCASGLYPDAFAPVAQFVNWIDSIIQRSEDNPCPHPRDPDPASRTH
# Description: Inhibition of human granulocyte elastase assessed as Ac-Ala-Ala-Pro-Ala-p-nitroanilide conversion to p-nitroaniline by spectrophotometric analysis
ID50 [1] [µg/mL],Structure (SMILES),also measured
6,CCOC(=O)[C@H](C)OC(=O)N(C)NC(=O)[C@@H]1CCCN1C(=O)[C@H](C)NC(=O)[C@@H]1CCCN1C(C)=O,
30,CCOC(=O)N(C)NC(=O)[C@@H]1CCCN1C(=O)[C@H](C)NC(=O)[C@H](C)NC(=O)OCc1ccccc1,
15,CCOC(=O)[C@H](C)OC(=O)N(C)NC(=O)[C@H](CC(C)C)NC(=O)[C@H](C)NC(=O)[C@@H]1CCCN1C(C)=O,
167,CCOC(=O)[C@H](C)OC(=O)[C@H](C)OC(=O)[C@@H]1CCCN1C(=O)[C@H](C)NC(=O)[C@@H]1CCCN1C(C)=O (Ac-PAP[Lac][Lac]-OEt),
,CCOC(=O)[C@H](C)NC(=O)N(C)NC(=O)[C@@H]1CCCN1C(=O)[C@H](C)NC(=O)[C@@H]1CCCN1C(C)=O (Ac-PAP[AzaAla]A-OEt),inhibition [1]: inactive
0.3,CC(=O)N1CCC[C@H]1C(=O)N[C@@H](C)C(=O)N1CCC[C@H]1C(=O)NN(C)C(=O)OC(C)C(N)=O (mixture of isomers),inhibition [2]: inactive; Activity [3]: inactive; Ki (Pancreatic elastase): 4.5 ×10⁻⁷ M; inhibition [4]: Active
20,CCOC(=O)N(C)NC(=O)[C@@H]1CCCN1C(=O)[C@H](C)NC(=O)[C@H](C)NC(C)=O,
1,C[C@H](NC(=O)OCc1ccccc1)C(=O)N[C@@H](C)C(=O)N1CCC[C@H]1C(=O)NN(C)C(=O)Oc1ccc([N+](=O)[O-])cc1,
1.5,CCOC(=O)[C@H](C)OC(=O)[C@H](C)OC(=O)N(C)NC(=O)[C@@H]1CCCN1C(=O)[C@H](C)NC(=O)[C@H](C)NC(C)=O,
0.4,CNC(=O)[C@H](C)OC(=O)N(C)NC(=O)[C@@H]1CCCN1C(=O)[C@H](C)NC(=O)[C@H](C)NC(C)=O,Ki (Pancreatic elastase): 6.5 ×10⁻⁷ M
,CCOC(=O)NNC(=O)[C@@H]1CCCN1C(=O)[C@H](C)NC(=O)[C@H](C)NC(=O)OC(C)(C)C,inhibition [1]: inactive
,CCOC(=O)[C@H](C)OC(=O)N(C)NC(=O)[C@H](C)NC(C)=O,inhibition [1]: inactive
,CCOC(=O)[C@H](C)OC(=O)N(C)NC(C)=O,inhibition [1]: inactive
0.4,CC(=O)N[C@@H](C)C(=O)N[C@@H](C)C(=O)N1CCC[C@H]1C(=O)NN(C)C(=O)O[C@@H](C)C(=O)Nc1ccccc1,Ki (Pancreatic elastase): 4.5 ×10⁻⁷ M
,CCOC(=O)NNC(=O)[C@@H]1CCCN1C(=O)[C@H](C)NC(=O)[C@H](C)NC(C)=O,inhibition [1]: inactive
2,CCOC(=O)[C@H](Cc1ccccc1)NC(=O)[C@H](C)OC(=O)N(C)NC(=O)[C@@H]1CCCN1C(=O)[C@H](C)NC(=O)[C@H](C)NC(C)=O,
0.25,CC(=O)N[C@@H](C)C(=O)N[C@@H](C)C(=O)N1CCC[C@H]1C(=O)NN(C)C(=O)O[C@@H](C)C(=O)NN,Ki (Pancreatic elastase): 6.5 ×10⁻⁷ M
1.5,CCOC(=O)[C@H](C)OC(=O)[C@H](C)OC(=O)N(C)NC(=O)[C@@H]1CCCN1C(=O)[C@H](C)NC(=O)[C@@H]1CCCN1C(C)=O,

ID50 [1] [µg/mL],Structure (SMILES),also measured
100,CCOC(=O)[C@H](C)NC(=O)N(C)NC(=O)[C@@H]1CCCN1C(=O)[C@H](C)NC(=O)[C@H](C)NC(C)=O (Ac-AAP[AzaAla]A-OEt),
,CCOC(=O)NNC(=O)[C@@H]1CCCN1C(=O)[C@H](C)NC(=O)[C@@H]1CCCN1C(C)=O,inhibition [1]: inactive
167,CCOC(=O)[C@H](C)OC(=O)[C@H](C)NC(=O)[C@@H]1CCCN1C(=O)[C@H](C)NC(=O)[C@H](C)NC(C)=O (Ac-AAPA[Lac]-OEt),Activity [5]: Active
2,CC(=O)N[C@@H](C)C(=O)N[C@@H](C)C(=O)N1CCC[C@H]1C(=O)NN(C)C(=O)O[C@@H](C)C(=O)N(C)N,ID50 [6]: 50 µg/mL
,CCOC(=O)[C@H](C)OC(=O)[C@H](C)NC(=O)[C@@H]1CCCN1C(=O)[C@H](C)NC(=O)[C@@H]1CCCN1C(C)=O (Ac-PAPA[Lac]-OEt),Activity [5]: Active; inhibition [1]: inactive
0.3,CC(=O)N[C@@H](C)C(=O)N[C@@H](C)C(=O)N1CCC[C@H]1C(=O)NN(C)C(=O)O[C@@H](C)C(=O)NCc1ccccc1,Ki (Pancreatic elastase): 8.5 ×10⁻⁷ M
9,CCOC(=O)[C@H](C)OC(=O)N(C)NC(=O)[C@H](CC(C)C)NC(=O)[C@H](C)NC(=O)[C@H](C)NC(C)=O,
33,CCOC(=O)[C@H](C)OC(=O)[C@H](C)OC(=O)[C@@H]1CCCN1C(=O)[C@H](C)NC(=O)[C@H](C)NC(C)=O (Ac-AAP[Lac][Lac]-OEt),
60,CCOC(=O)N(C)NC(=O)[C@@H]1CCCN1C(=O)[C@H](C)NC(=O)[C@@H]1CCCN1C(C)=O,
2,CCOC(=O)[C@H](Cc1ccccc1)OC(=O)N(C)NC(=O)[C@@H]1CCCN1C(=O)[C@H](C)NC(=O)[C@H](C)NC(C)=O,
90,CCOC(=O)N(C)NC(=O)[C@@H]1CCCN1C(=O)[C@H](C)NC(=O)[C@H](C)NC(=O)OC(C)(C)C,
4.5,CCOC(=O)C(C)OC(=O)N(C)NC(=O)[C@@H]1CCCN1C(=O)[C@H](C)NC(=O)[C@@H]1CCCN1C(C)=O (stereo partly drawn),
1,CCOC(=O)[C@H](C)OC(=O)N(C)NC(=O)[C@@H]1CCCN1C(=O)[C@H](C)NC(=O)[C@H](C)NC(C)=O,Activity [3]: inactive
110,CC(=O)N[C@@H](C)C(=O)N[C@@H](C)C(=O)N1CCC[C@H]1C(=O)NN(C)C(=O)O[C@@H](C)C(=O)O,
,CCOC(=O)N(C)NC(=O)[C@H](C)NC(C)=O,inhibition [1]: inactive
0.4,CC(=O)N[C@@H](C)C(=O)N[C@@H](C)C(=O)N1CCC[C@H]1C(=O)NN(C)C(=O)O[C@@H](C)C(N)=O,Ki (Pancreatic elastase): 5 ×10⁻⁷ M
0.5,CC(=O)N[C@@H](C)C(=O)N[C@@H](C)C(=O)N1CCC[C@H]1C(=O)NN(C)C(=O)O[C@@H](C)C(=O)OCc1ccccc1,
